Laboratory results published in patent publication US7414068B2, “Benzopyran derivatives substituted with secondary amines including tetrazole, method for the preparation thereof and pharmaceutical compositions containing them” (Dongbu Hannong Chemical Co., Ltd., priority 2002, dated 2008).

Key:
isolated rat aorta = test: Vasodilating effect on blood vessel excised from rats (methoxamine-constricted aorta); conditions: isolated rat aorta constricted with methoxamine (3 μM); read-out: Concentration for inhibition of constriction induced by methoxamine in rat arota (IC50)
Outline: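 Endothelium-denuded rat thoracic aortic rings (3 mm) in Krebs-Henseleit buffer, 37 °C, carbogen, 2 g resting tension, primed twice with 10^−5 M phenylephrine. After maximal contraction with 3×10^−6 M methoxamine, compounds added cumulatively at 1, 3, 10, 30 μM. IC50 = concentration giving 50% relaxation of maximal constriction, by linear regression.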

RAW 264.7 cells = test: Inhibitory effect on NO production (LPS, Griess reagent); format: cell-based, murine; conditions: Mus musculus, RAW264.7, 24 h, Addition 30 μM, LPS 1 μg/ml, read-out: Inihibition (%) of NO production
Protocol: Using RPMI1640 media supplemented with 10% fetal bovine serum (FBS), RAW 264.7 cells (obtained from American Type Culture Collection), a murine macrophage cell line, were cultured at 37° C. in a 5% CO2 incubator. The RAW 264.7 cells were harvested and cell density was adjusted to 5×10^5 cell/ml with a RPMI media supplemented with 0.5% FBS and plated at 5×10^4 cell/well to 96-well plate, which were then cultured for 20 hours in a CO2 incubator. After removal of the media, the cells were pre-treated for 1 hour with fresh media containing 30 μM. The test compounds were dissolved in DMSO and diluted to respective concentration in the media. In order to minimize DMSO effect on the nitric oxide formation by the RAW 264.7 cells in the walls, the media were allowed to contain DMSO at a concentration of 0.1% or less.
After completion of one-hour pre-treatment, Lipopolysaccharide (E. coli serotype 055:B5) was added to activate the cells at a final concentration of 1 μg/ml, which were maintained for 24 hours in a CO2 incubator. As a result of the activation of RAW 264.7 cells with LPS, NO was formed. The NO release into the media was in a form of nitrite (NO2^−) and quantitatively measured using the Griess reagent. A control group was treated only with vehicle instead of test compounds.
The inhibitory effect of the test compounds against NO production were determined as the reduction of NO quantity compared with that of the control group.

cortical neuron cells [1] = test: Protective effect on iron-induced neuronal cell injury (LDH release); format: cell-based; conditions: FeSO4 50 μM; for protective effect on neuron cell: Inhibition (%, 30 μM compound addition): LDH reduction vs control; for IC50: LDH
Outline: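 Embryonic (day 17–18) cortical neurons cultured 7–9 days, serum lowered to 0.2%, pretreated 30 min with compound (DMSO ≤0.1%), then exposed to 50 μM FeSO4 for 24 h. LDH released to medium measured; protection expressed as LDH reduction versus vehicle control.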

[2] = test system: isolated ischemic rat heart; test: Cardioprotective effect in ischemic heart models of rats (Langendorff); conditions: 10 μM; for EDP (mmHg): after 30 min global ischemia and reperfusion; for LDH (u/g): reperfusion LDH release; for LVDP X HR (%): reperfusion, % of pre-treatment DP; for TTC: time to contracture during global ischemia
Outline: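 Langendorff-perfused male rat hearts (Krebs-Henseleit, 85 mmHg, 37 °C) pretreated 10 min with compound or vehicle (0.04% DMSO), then 30 min global ischemia and 30 min reperfusion. Read-outs: LVDP, HR, CF, rate-pressure product, time to contracture (first 5 mmHg EDP rise), LDH release.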

[3] = Acute oral toxicity test in rats; conditions: SD, rat, in vivo, single oral dose, suspended in 0.5% methyl cellulose, read-out: lethal dose (LD50) for oral administration
Outline: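 Six-week-old SPF SD rats, two per group, received compounds orally as suspensions in 0.5% methyl cellulose. Endpoints were clinical signs, body weight, mortality, haematology, serum biochemistry and macroscopic necropsy of organs and tissues.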

[4] = test system: HUVEC (Human Umbilical Vein Endothelial Cell); test: Inhibitory effect against HUVEC tube formation; format: cell-based; parameters: key: −: no effect; +/−: slight effect; +: medium effect; ++: strong effect
Protocol: HUVEC (Human Umbilical Vein Endothelial Cell) were cultured, and tubulogenesis (tube formation) was induced in vascular endothelial cells by plating them onto the surface of Matrigel for several hours. The effect on tube formation of the test compounds were compared with the vehicle-treated control group, then confirmed their in-vitro anti-angiogenic effect indirectly.

cortical neuron cells [5] = test: Protective effect on hydrogen peroxide induced neuronal cell injury; format: cell-based; conditions: hydrogen peroxide 30 μM
[6] = test system: A7r5 (Rat thoracic aorta smooth muscle cell line, ATCC); test: Inhibitory effect on accumulation of reactive oxygen species induced by hydrogen peroxide (DCF fluorescence); format: cell-based; conditions: hydrogen peroxide 50 μM
Protocol: To measure reactive oxygen species, H2DCFDA (2′,7′-dichlorodihydrofluorescein diacetate, Molecular Probes, Eugene, Oreg., USA) was used. If H2DCFDA, nonpolar material is transferred through cell membrane, it is changed to H2DCF (2′,7′-dichlorodihydrofluorescein), material impermeable to membrane by intracellular esterase. H2DCF is changed to high fluorescent DCF (2′,7′-dichlorofluorescein) by low fluorescent peroxidated oxygen or hydroxyl radical. H2DCFDA solution (10 mM) dissolved in DMSO was used before the experiment. A7r5 (Rat thoracic aorta smooth muscle cell line, ATCC), as smooth muscle cell was incubated in DMEM (Dulbecco's Modified Eagle's Medium) containing 10% of FBS (fetal bovine serum). Thereafter, the cell was incubated in 48 well plate for two days, then was incubated in serum-free DMEM for 24 hours to use for experiment. Krebs-linger buffer (Krebs-Ringer (K-R), 99.01 mM NaCl, 4.69 mM KCl, 1.87 mM CaCl2, 1.2 mM MgSO4, 1.03 mM K2HPO4, 25 mM NaHCO3, 20 mM Hepes, 11.1 mM D-glucose, pH 7.4) was used for washing and process of cell monolayers. After cell monolayers media was removed, each of test compounds (0.2 ml) was pre-treated to media, then incubated at 37° C. for 15 min. Final concentration was 50 μM, hydrogen peroxide was added. The media was allowed to stand for 30 min. The said solution from media was removed. The media was washed one time. H2DCFDA 20 μM was added to the media. The media was allowed to stand for 30 min. the media was washed two times. Thereafter, oxidation of H2DCFDA was measured by Fluorescence reader (FL600, Biotech Instruments, 485 nm excitation, 530 nm emission).

brain homogenate = test: Inhibitory effect against lipid peroxidation by iron (MDA quantification); format: biochemical, rat; conditions: 100 μM compound, FeCl2 400 μM, 37° C. 30 min
Protocol: The rat brain was homogenized in a Krebs buffer (15 mM HEPES, 10 mM glucose, 140 mM NaCl, 3.6 mM KCl, 1.5 mM CaCl2, 1.4 mM KH2PO4, 0.7 mM MgCl2, PH 7.4) and the supernatant separated by centrifugation at 12,000 rpm for 10 min was used for further experiments. FeCl2 was added for the final concentration to be 400 μM. Then the brain homogenate was allowed to stand at 37° C. for 30 min for the facilitation of oxidation. Each of the test compounds was added at a concentration of 100 μM. For control group, only vehicle was applied.
Iron facilitates the oxidation of the said brain homogenate to produce malondialdehyde (MDA), lipid peroxidation product. Thus, the lipid peroxidation was determined by MDA quantification. The inhibitory effect against lipid peroxidation of the test compounds was evaluated by calculating MDA reduction rate of the test compounds compared with that of the control group.
Typically, the MDA quantification is achieved by reacting samples with 2-thiobarbituric acid (TBA) and measuring the absorbance at 530 nm. However, this method is unsuitable to treat samples on a large scale because of a boiling step. Thus, in this experiment, N-methyl-2-phenylindole was used instead of TBA.

[7] = test system: Low density lipoprotein of human (human LDL); test: Inhibitory effect against lipid peroxidation induced by copper (LDL oxidation, MDA); format: biochemical; conditions: CuSO4 10 μM, 37° C. 18 hours
Protocol: Low density lipoprotein of human (human LDL, sigma) was dissolved in water to be final concentration of 1 mg/ml. To remove EDTA (ethylenediamine tetraacetate), the aqueous solution was dialyzed in phosphate buffer at 4° C. for 18 hours. At this dialysis, phosphate buffer was changed three times. Phosphate buffer was added to LDL (100 μg LDL protein/ml) which EDTA was removed from the aqueous solution, additionally thereto CuSO4 10 μM as oxidant was added. […] Group to which CUSO4 was not added was used as blank group. Group to which CUSO4 and vehicle were added in place of test compounds was used as control group. The mixture was incubated at 37° C. for 18 hours. EDTA […] was added to the mixture to terminate the oxidation reaction.
As shown in example 4, Cu^2+ facilitates the oxidation reaction to produce malondialdehyde (MDA), lipid peroxidation product. The MDA quantification is achieved by reacting samples with 2-thiobarbituric acid (TBA) and measuring the absorbance at 530 nm. Also, 1,1,3,3-tetramethoxypropane purchased from sigma was used as standard materials. Inhibitory effect against lipid peroxidation of the test compounds was measured by MDA (nmol) to protein (mg). Decrease of MDA to that of control group was calculated.

Molecule: COC(OC)[C@@]1(C)Oc2ccc([N+](=O)[O-])cc2[C@H](N(Cc2nnn(C)n2)c2cc(C)ccc2O)[C@H]1O [Example 70, (2S,3R,4S)-6-nitro-4-[N-(2-hydroxy-5-methylphenyl)-N-(2-methyl-2H-tetrazol-5-ylmethyl)amino]-3-hydroxy-2-methyl-2-dimethoxymethyl-3,4-dihydro-2H-1-benzopyran]
- IC50 (isolated rat aorta): > 30000 nM
- inhibition at 30 µM (RAW 264.7 cells): > 75%
- protective effect on neuron cell: Inhibition (%, 30 μM compound addition) (cortical neuron cells [1]; 24 hours): 85%
- IC50 (cortical neuron cells [1]; Cortical neurone, 24 h): < 2000 nM
- IC50 (cortical neuron cells [1]; 24 hours): 1400 nM
- EDP (mmHg) [2]: 37.0 mmHg
- LDH (u/g) [2]: 18.4 u/g
- LVDP X HR (%) [2]: 31.9%
- TTC [2]: 22.0 min
- LD50 [3]: > 2000 mg/kg

Molecule: COC(OC)[C@@]1(C)Oc2ccc([N+](=O)[O-])cc2[C@H](N(Cc2nnn(C)n2)c2ccc(Cl)cc2)[C@H]1O [Example 2, (2S,3R,4S)-6-nitro-4-[N-(4-chlorophenyl)-N-(2-methyl-2H-tetrazol-5-ylmethyl)amino]-3-hydroxy-2-methyl-2-dimethoxymethyl-3,4-dihydro-2H-1-benzopyran]
- Tube formation (inhibitory effect) ([4]; 10 μM): +
- Tube formation (inhibitory effect) ([4]; 100 μM): ++

Molecule: CC(CN1c2ccccc2Sc2ccccc21)N(C)C (stereo not drawn) [Promethazine]
- Inhibition(%) of hydrogen peroxide induced neuronal cell injury (cortical neuron cells [5]; Addition 5 μM): 97%

Molecule: CCCOC(=O)c1cc(O)c(O)c(O)c1 [Propyl gallate, reference compound]
- Inhibitory(%) against reactive oxygen species accumulation ([6]; addition 3 μM): 57%
- Inhibitory(%) against reactive oxygen species accumulation ([6]; addition 10 μM): 94%
- Inhibitory(%) against reactive oxygen species accumulation ([6]; addition 30 μM): 108%
- Inhibition(%) of hydrogen peroxide induced neuronal cell injury (cortical neuron cells [5]; Addition 10 μM): 94%

Molecule: COC(OC)[C@@]1(C)Oc2ccc([N+](=O)[O-])cc2[C@H](N(Cc2nnn(C)n2)c2ccccc2O)[C@H]1O [Example 60, (2S,3R,4S)-6-nitro-4-[N-(2-hydroxyphenyl)-N-(2-methyl-2H-tetrazol-5-ylmethyl)amino]-3-hydroxy-2-methyl-2-dimethoxymethyl-3,4-dihydro-2H-1-benzopyran]
- inhibitory effect against lipid peroxidation induced by iron (%, 100 μM) (brain homogenate): 85%
- inhibition at 30 µM (RAW 264.7 cells): > 75%
- protective effect on neuron cell: Inhibition (%, 30 μM compound addition) (cortical neuron cells [1]; 24 hours): 87%
- IC50 (cortical neuron cells [1]; Cortical neurone, 24 h): < 1000 nM
- IC50 (cortical neuron cells [1]; 24 hours): 700 nM
- LD50 [3]: > 2000 mg/kg

Molecule: tocopherol
- Inhibitory effect(%) against lipid peroxidation induced by copper ([7]; Addition 10^−5 M): 29.7%
- Inhibitory effect(%) against lipid peroxidation induced by copper ([7]; Addition 10^−7 M): 21.3%

Molecule: CC(C)(Sc1cc(C(C)(C)C)c(O)c(C(C)(C)C)c1)Sc1cc(C(C)(C)C)c(O)c(C(C)(C)C)c1 [Probucol]
- Inhibitory effect(%) against lipid peroxidation induced by copper ([7]; Addition 10^−5 M): 66.7%
- Inhibitory effect(%) against lipid peroxidation induced by copper ([7]; Addition 10^−6 M): 58.7%
- Inhibitory effect(%) against lipid peroxidation induced by copper ([7]; Addition 10^−7 M): 33.7%

Molecule: COC(OC)[C@@]1(C)Oc2ccc([N+](=O)[O-])cc2[C@H](N(Cc2nnn(C)n2)c2ccccc2Cl)[C@H]1O [Example 29, (2S,3R,4S)-6-nitro-4-[N-(2-chlorophenyl)-N-(2-methyl-2H-tetrazol-5-ylmethyl)amino]-3-hydroxy-2-methyl-2-dimethoxymethyl-3,4-dihydro-2H-1-benzopyran]
- inhibition at 30 µM (RAW 264.7 cells): > 75%

Molecule: CC1(C)Oc2ccc(C#N)cc2[C@@H](NC(=NC#N)Nc2ccc(Cl)cc2)[C@@H]1O [BMS-180448, reference compound]
- IC50 (isolated rat aorta): 1380 nM
- EDP (mmHg) [2]: 16.5 mmHg
- LDH (u/g) [2]: 17.2 u/g
- LVDP X HR (%) [2]: 67.6%
- TTC [2]: 27.8 min
- Inhibition(%) of hydrogen peroxide induced neuronal cell injury (cortical neuron cells [5]; Addition 30 μM): −5%

Molecule: COC(OC)[C@@]1(C)Oc2ccc(N)cc2[C@H](N(Cc2nnn(C)n2)c2ccc(C)cc2)[C@H]1O [Example 28, (2S,3R,4S)-6-amino-4-[N-(4-methylphenyl)-N-(2-methyl-2H-tetrazol-5-ylmethyl)amino]-3-hydroxy-2-methyl-2-dimethoxymethyl-3,4-dihydro-2H-1-benzopyran]
- inhibitory effect against lipid peroxidation induced by iron (%, 100 μM) (brain homogenate): 83%
- Tube formation (inhibitory effect) ([4]; 10 μM): +/−
- Tube formation (inhibitory effect) ([4]; 100 μM): +
- IC50 (isolated rat aorta): > 30000 nM
- protective effect on neuron cell: Inhibition (%, 30 μM compound addition) (cortical neuron cells [1]; 24 hours): 103%
- IC50 (cortical neuron cells [1]; Cortical neurone, 24 h): 4100 nM
- LD50 [3]: > 2000 mg/kg
